In patent US20110008394A1, “ACTIVE SUBSTANCES THAT INCREASE THE ACTIVATION THRESHOLD OF IMMUNE CELLS” (BASF Beauty Care Solutions France S.A.S., priority 2008, published 2011):

What was measured:
[1] = test system: CD86 on immature LCs/DDCs; assay: Protein expression of CD86 on treated immature LCs/DDCs, flow cytometry; assay type: cell-based, human; settings: for RESIDUAL EXPRESSION OF CD86: protein, untreated control = 100%; for LEVEL OF IMMUNOREPRESSION: inversely proportional to residual CD86 protein expression, closer to 1 = stronger
Procedure: The study of the immunorepressive properties of the cosmetic active principles by flow cytometry proceeds in the following manner:
(§1) 1/ The immature LCs/DDCs are generated as described in Example 1 and step 3.
2/ The cells are inoculated in P24-well plates, at a rate of 400 000 cells per cm^2, and in the culture medium described in Example 3.
4/ The cells are then incubated for 30 minutes with an anti-CD86 monoclonal antibody coupled to a fluorochrome, such as phycoerythrin (advantageously 10 μl of anti-CD86 antibody/well). The negative marking control corresponds to the IgG1 control isotype. After this marking step, the cells are rinsed with the said marking buffer, and then analysed by flow cytometry.
The level of immunorepression, which is inversely proportional to the residual expression of CD86, was also calculated.

[2] = test system: messenger RNAs coding for CD86 in immature LCs/DDCs; assay: Expression of messenger RNAs coding for CD86 in treated immature LCs/DDCs, quantitative RT-PCR; assay type: cell-based, human; settings: 10^-7M, 24 hour treatment; for RESIDUAL EXPRESSION OF CD86: messenger RNA relative to actin, untreated control = 100%; for LEVEL OF IMMUNOREPRESSION: from CD86 messenger RNA, closer to 1 = stronger
From the text: Quantitative RT-PCR makes it possible to quantify the expression of the messenger RNAs coding for the protein CD86 in the LCs/DDCs treated or not treated with the said active agents.
The study of the immunorepressive properties of the cosmetic active principles by quantitative RT-PCR proceeds in the following manner:
as §1
(§2) 2/ The cells are inoculated in P24-well plates, at a rate of 400 000 cells per cm^2, and in the culture medium described in Example 3. The treatment of the cells with the active principles is described in Example 3.
3/ After treatment with the active principles, the cells are recovered and stored, for example by dry-freezing at −80° C. after rinsing with pH 7.4 phosphate buffer.
4/ The total RNA of the cells is extracted, for example using a 96-well extraction kit on silica columns, and assayed on e96-well spectrophotometer at 260 nm (purity indicator: assay of the proteins at 280 nm). The RNAs are diluted, for example, to 5 ng/μl.
5/ The […] RT-PCR in step 1 is performed, for example, on 50 ng of initial RNA on a 96-well plate, on the genes for actin and for the molecule CD86. The specific primers for each gene are specified in Table 7 below and are used, for example, at 0.5 μM.
The amplification parameters were advantageously the following: the real-time RT-PCR technique is performed with the Quanti Tect SYBR Green RT-PCR kit (Qiagen, France) on the wells containing the messenger RNA, in an Opticon thermocycler, which performs the amplification cycles. The reverse transcription (RT) is performed for 30 minutes at 50° C., followed by 15 minutes at 95° C. to inhibit the reverse transcriptase, to activate the polymerase and to denature the complementary DNA (cDNA) obtained. 50 cycles of chain polymerization (PCR) are performed (15 seconds at 95° C., 30 seconds at 60° C., 30 seconds at 72° C.). At the end of each cycle, the fluorescence, which is proportional to the number of amplified fragments, is read. The level of expression is defined by the ratio of expression of each gene relative to actin.
The results are expressed in the following manner: the untreated control is referenced at 100% expression of the messenger RNAs coding for the molecule CD86, and the tests are expressed as the level of expression of the messenger RNAs coding for CD86 as a percentage of variation relative to those obtained for the negative control.

[3] = test system: CD86 on LCs/DDCs stimulated with LPS and TNFα; assay: Response to a danger signal: LCs/DDCs pretreated with active principles, then stimulated with LPS + TNFα without them, CD86 by flow cytometry; assay type: cell-based, human; settings: for RESPONSE CAPACITY: capacity for response to a danger signal, proportional to residual CD86 after pretreatment + stimulation (stimulation alone 143%); for RESIDUAL EXPRESSION OF CD86 AFTER PRETREATMENT + STIMULATION: pretreated, then recultured 48 hours without active principle with LPS 50 μg/mL + TNFα 10 μg/mL, untreated unstimulated control = 100%
From the text: As in Example 8, we checked that the LCs/DDCs are capable of responding to a danger signal, for example a bacterial infection, when they have been treated beforehand with the active principles and when they are no longer being treated. To do this, we checked that the LCs/DDCs treated with the said active principles, and then stimulated with LPS and TNFα (in the absence of the active principles), are capable of overexpressing the co-stimulation molecule CD86 after this stimulation.
(§3) The flow cytometry study proceeds in the following manner:
as §1, §2
3/ The cells treated with the active principles are then recultured, without the active principles and in the culture medium described in Example 3, for a further 48 hours. A mixture of LPS (at 50 μg/mL advantageously) and of TNFα (at 10 μg/mL advantageously) is added to the said culture medium. The cells are then analysed by flow cytometry, as described in Example 6, to quantify the residual expression of the molecule CD86 after “pretreatment+stimulation”.
The results are expressed in the following manner: the control not treated with the active agent and not stimulated with LPS and TNFα is referenced at 100% expression of the molecule CD86, and the tests are expressed as the residual expression of the molecule CD86 after “stimulation” and after “pretreatment+stimulation”. We also calculated the level of capacity for response to a danger signal, which is proportional to the residual expression of CD86 after pretreatment+stimulation.

immature LCs/DDCs = assay: Cell viability (cytotoxicity) test, 7-AAD dye, flow cytometry; assay type: cell-based; settings: 24 hour treatment
Procedure: The active principles have a cytotoxic effect when the cell viability is less than 75% after treatment with the said active agents.
The LCs/DDCs, as described in Example 1 and step 3, are inoculated into P96-well plates, at a rate of 200 000 cells/well, and in the culture medium described in Example 3. The treatment of the cells with the active principles is described in Example 3.
After treatment with the said active principles, the cells are incubated with 5 μl of dye 7-AAD (7-aminoactinomycin D) per well. After incubation for 5 minutes, the cells are analysed by flow cytometry.
The cell viability is expressed as a percentage of viable cells or negative 7-AAD, the dye not penetrating the membranes that are impermeable. This analysis technique also makes it possible to visualize the cells positively marked with 7-AAD, i.e. the cells that have undergone a cytotoxic effect via the active agent.
The negative controls are either the culture medium alone, or the culture medium containing the solvent used during the process for extracting the extracts tested at the concentration equivalent to that of the active agents tested. The reference positive control used in order to induce a mortality of the LCs/DDCs is camptothecin at a concentration of 4 μM final.

[4] = test system: CD86 on LCs/DDCs stimulated with LPS and TNFα; assay: Response to a danger signal: LCs/DDCs simultaneously treated with active principles and stimulated with LPS + TNFα, CD86 by flow cytometry; assay type: cell-based, human; settings: for RESIDUAL EXPRESSION OF CD86 AFTER TREATMENT: active principle alone, no stimulation; for RESIDUAL EXPRESSION OF CD86 AFTER TREATMENT / RESIDUAL EXPRESSION OF CD86 AFTER TREATMENT + STIMULATION: untreated unstimulated control = 100%; for RESPONSE CAPACITY: capacity for response to a danger signal, proportional to residual CD86 after treatment + stimulation (stimulation alone 143%); for RESIDUAL EXPRESSION OF CD86 AFTER TREATMENT + STIMULATION: simultaneous active principle and LPS 50 μg/mL + TNFα 10 μg/mL
Procedure: Evaluation of the immunorepressive potential of the active principles also requires a study of the capacity of the LCs/DDCs to respond to a danger signal, for example a bacterial infection, when they are treated with the said active principles. Specifically, we checked that the LCs/DDCs that are simultaneously treated with the active principles and activated by a danger signal are still competent in their function of recognition of danger signals. To do this, we checked that the LDs/DDCs simultaneously treated with the active principles and stimulated with LPS and TNFα are capable of overexpressing the co-stimulation molecule CD86 after this stimulation.
as §3, §1
2/ The cells are inoculated in P24-well plates, at a rate of 400 000 cells per cm^2, and in the culture medium described in Example 3. A mixture of LPS (at 50 μg/mL advantageously) and of TNFα (at 10 μg/mL advantageously) is added to the said culture medium. Simultaneously, the cells are treated with the active principles as described in Example 3.
3/ The cells that have been simultaneously treated with the active principles and stimulated with LPS and TNFα are analysed by flow cytometry, as described in Example 6, to quantify the residual expression of the molecule CD86 after “treatment+stimulation”.
The results are expressed in the following manner: the control not treated with the active agent and not stimulated with LPS+TNFα is referenced at 100% expression of the molecule CD86, and the tests are expressed as the residual expression of the molecule CD86 after “treatment”, after “treatment+stimulation” and “stimulation”. We also calculated the level of capacity for response to a danger signal, which is proportional to the residual expression of CD86 after treatment+stimulation.

[5] = 5 × 1^0^-^7M, dose/effect study
[6] = 10^-7M, % viable (7-AAD negative) cells

| Molecule | RESIDUAL EXPRESSION OF CD86 [1, 5] [%] | RESIDUAL EXPRESSION OF CD86 ([1]; 5 × 10^-8M, dose/effect study) [%] | RESIDUAL EXPRESSION OF CD86 ([1]; 10^-6M, dose/effect study) [%] | RESIDUAL EXPRESSION OF CD86 ([1]; 10^-7M, 24 hour treatment) [%] | LEVEL OF IMMUNOREPRESSION ([1]; 10^-7M, 24 hour treatment) | RESIDUAL EXPRESSION OF CD86 [2] [%] | LEVEL OF IMMUNOREPRESSION [2] | RESPONSE CAPACITY [3] | RESIDUAL EXPRESSION OF CD86 AFTER PRETREATMENT + STIMULATION [3] [%] | CYTOTOXIC EFFECT (immature LCs/DDCs; 10^-7M) | CELL VIABILITY (immature LCs/DDCs; [6]) [%] | RESIDUAL EXPRESSION OF CD86 AFTER TREATMENT [4] [%] | RESPONSE CAPACITY [4] | RESIDUAL EXPRESSION OF CD86 AFTER TREATMENT + STIMULATION [4] [%] | CELL VIABILITY (immature LCs/DDCs; 3 μm, positive control) [%] | CYTOTOXIC EFFECT (immature LCs/DDCs; 3 μm, positive control) | RESIDUAL EXPRESSION OF CD86 ([1]; 10^-8M, 24 hour treatment) [%] | LEVEL OF IMMUNOREPRESSION ([1]; 10^-8M, 24 hour treatment) |
| --- | --- | --- | --- | --- | --- | --- | --- | --- | --- | --- | --- | --- | --- | --- | --- | --- | --- | --- |
| COc1cc2c(cc1OC)-c1cc3cc(OC)c(OC)cc3c(=O)n1CC2 [8-Oxopseudopalmatine] | 92 | 100 | 85 | 81 | 0.14 | 59 | 0.41 | 0.89 | 127 | NO (The active principles have a cytotoxic effect when the cell viability is less than 75% after treatment with the said active agents) | 94 | 81 | 0.85 | 121 |  |  |  |  |
| CC[C@@]1(O)C(=O)OCc2c1cc1n(c2=O)Cc2cc3ccccc3nc2-1 [Camptothecin, reference compound] |  |  |  |  |  |  |  |  |  |  |  |  |  |  | 35 | YES (The active principles have a cytotoxic effect when the cell viability is less than 75% after treatment with the said active agents) |  |  |
| C[C@@H]1C[C@H]2[C@@H]3CCC4=CC(=O)C=C[C@]4(C)[C@@]3(F)[C@@H](O)C[C@]2(C)[C@@]1(O)C(=O)CO [Dexamethasone, reference compound] |  |  |  |  |  |  |  | 0.91 | 130 |  |  | 50 | 0.52 | 75 |  |  | 50 | 0.5 |
| O=C1C=C2C=C[C@@H]3C[C@@]2(O1)[C@H]1CCCCN31 [Securinine] | 100 | 90 | 100 | 83 | 0.10 | 74 | 0.26 | 0.88 | 126 | NO (The active principles have a cytotoxic effect when the cell viability is less than 75% after treatment with the said active agents) | 94 | 83 | 0.98 | 140 |  |  |  |  |
| Foliosidine acetonide | 80 | 85 | 83 | 85 | 0.17 | 91 | 0.09 | 0.84 | 120 | NO (The active principles have a cytotoxic effect when the cell viability is less than 75% after treatment with the said active agents) | >95 | 85 | 0.81 | 116 |  |  |  |  |
